Assay results as given in ChEMBL document CHEMBL4837240 (J Med Chem, 2021).
Activity calls are given as the source filed them. The calls are words filed in the database; no cut-off is given here.

Key:
[1] = system: MDA-MB-436; assay: Anticancer activity against human MDA-MB-436 cells assessed as cell viability incubated for 48 hrs by MTT assay; details: MDA-MB-436, 48 h
[2] = target: T1, Vascular endothelial growth factor receptor 3 (Homo sapiens, UniProt P35916); assay: Inhibition of VEGFR3 in human dermal lymphatic endothelial cells assessed as inhibition of AKT phosphorylation incubated for 24 hrs by Western blot analysis; type: tissue-based; details: HDLEC
T1 sequence (P35916 whole entry): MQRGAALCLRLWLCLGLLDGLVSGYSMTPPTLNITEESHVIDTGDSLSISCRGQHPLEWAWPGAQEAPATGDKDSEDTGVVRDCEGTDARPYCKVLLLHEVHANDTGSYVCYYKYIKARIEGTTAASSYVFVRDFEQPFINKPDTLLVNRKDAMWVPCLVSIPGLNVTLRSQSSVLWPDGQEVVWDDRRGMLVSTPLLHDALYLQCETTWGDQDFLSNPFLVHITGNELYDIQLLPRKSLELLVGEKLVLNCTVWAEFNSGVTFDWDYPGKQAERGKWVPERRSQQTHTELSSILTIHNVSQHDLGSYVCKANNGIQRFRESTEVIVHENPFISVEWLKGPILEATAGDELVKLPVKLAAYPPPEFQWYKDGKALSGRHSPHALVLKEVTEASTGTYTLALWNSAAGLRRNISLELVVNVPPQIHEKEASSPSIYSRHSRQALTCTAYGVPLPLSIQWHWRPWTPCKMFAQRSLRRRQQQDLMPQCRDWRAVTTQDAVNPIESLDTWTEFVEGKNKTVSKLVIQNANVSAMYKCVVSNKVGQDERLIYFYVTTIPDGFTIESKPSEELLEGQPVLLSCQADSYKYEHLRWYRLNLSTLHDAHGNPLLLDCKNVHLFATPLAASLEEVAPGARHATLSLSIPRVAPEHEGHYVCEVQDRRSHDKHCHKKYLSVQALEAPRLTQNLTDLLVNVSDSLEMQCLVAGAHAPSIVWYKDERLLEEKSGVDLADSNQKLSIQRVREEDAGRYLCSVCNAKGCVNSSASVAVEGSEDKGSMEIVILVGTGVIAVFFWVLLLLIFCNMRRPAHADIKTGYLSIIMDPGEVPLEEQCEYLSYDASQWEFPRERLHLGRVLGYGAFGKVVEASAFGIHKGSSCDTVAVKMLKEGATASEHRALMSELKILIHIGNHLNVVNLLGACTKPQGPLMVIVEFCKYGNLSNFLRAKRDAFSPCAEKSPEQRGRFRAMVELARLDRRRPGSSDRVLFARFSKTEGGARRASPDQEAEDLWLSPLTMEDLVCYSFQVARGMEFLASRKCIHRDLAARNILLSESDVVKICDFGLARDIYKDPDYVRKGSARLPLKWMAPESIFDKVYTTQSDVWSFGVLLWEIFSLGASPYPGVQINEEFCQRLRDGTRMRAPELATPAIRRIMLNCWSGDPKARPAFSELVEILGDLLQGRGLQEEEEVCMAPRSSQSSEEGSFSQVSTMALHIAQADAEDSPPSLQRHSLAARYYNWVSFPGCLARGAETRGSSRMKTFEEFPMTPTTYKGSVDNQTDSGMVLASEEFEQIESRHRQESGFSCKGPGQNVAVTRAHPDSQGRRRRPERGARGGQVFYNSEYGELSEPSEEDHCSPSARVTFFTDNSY

[3] = AUC (0 to t) in Sprague-Dawley rat at 10 mg/kg, po by LC-MS analysis; type: ADME, organism-based; design: dose 10 mg/kg; details: in vivo
[4] = system: HDLEC; assay: Downregulation of MMP2 protein expression in human dermal lymphatic endothelial cells incubated for 24 hrs by Western blot analysis; type: functional, tissue-based
[5] = system: MDA-MB-231; assay: Antimigratory activity against human MDA-MB-231 cells assessed as suppression of migration measured after 24 hrs by Wound healing assay; type: functional, cell-based
[6] = Cmax in Sprague-Dawley rat at 1 mg/kg, iv by LC-MS analysis; type: ADME, organism-based; design: route intravenous, dose 1 mg/kg; details: in vivo
[7] = species on record: Danio rerio; assay: Antiangiogenesis activity against transgenic zebrafish with GFP-labeled vascular endothelial cells assessed as inhibition of subintestinal vessels at 10 uM incubated for 24 hrs by fluorescence microscopy; type: functional, organism-based
[8] = target: Vascular endothelial growth factor receptor 3 (Mus musculus) (UniProt P35917); assay: In vivo inhibition of VEGFR3 phosphorylation in BALB/c mouse xenografted with MDA-MB-231 cells assessed as decrease in AKT phosphorylation at 25 mg/kg, po by immunohistochemistry analysis; type: functional, organism-based
Sequence of Vascular endothelial growth factor receptor 3 (Mus musculus) (P35917 whole entry): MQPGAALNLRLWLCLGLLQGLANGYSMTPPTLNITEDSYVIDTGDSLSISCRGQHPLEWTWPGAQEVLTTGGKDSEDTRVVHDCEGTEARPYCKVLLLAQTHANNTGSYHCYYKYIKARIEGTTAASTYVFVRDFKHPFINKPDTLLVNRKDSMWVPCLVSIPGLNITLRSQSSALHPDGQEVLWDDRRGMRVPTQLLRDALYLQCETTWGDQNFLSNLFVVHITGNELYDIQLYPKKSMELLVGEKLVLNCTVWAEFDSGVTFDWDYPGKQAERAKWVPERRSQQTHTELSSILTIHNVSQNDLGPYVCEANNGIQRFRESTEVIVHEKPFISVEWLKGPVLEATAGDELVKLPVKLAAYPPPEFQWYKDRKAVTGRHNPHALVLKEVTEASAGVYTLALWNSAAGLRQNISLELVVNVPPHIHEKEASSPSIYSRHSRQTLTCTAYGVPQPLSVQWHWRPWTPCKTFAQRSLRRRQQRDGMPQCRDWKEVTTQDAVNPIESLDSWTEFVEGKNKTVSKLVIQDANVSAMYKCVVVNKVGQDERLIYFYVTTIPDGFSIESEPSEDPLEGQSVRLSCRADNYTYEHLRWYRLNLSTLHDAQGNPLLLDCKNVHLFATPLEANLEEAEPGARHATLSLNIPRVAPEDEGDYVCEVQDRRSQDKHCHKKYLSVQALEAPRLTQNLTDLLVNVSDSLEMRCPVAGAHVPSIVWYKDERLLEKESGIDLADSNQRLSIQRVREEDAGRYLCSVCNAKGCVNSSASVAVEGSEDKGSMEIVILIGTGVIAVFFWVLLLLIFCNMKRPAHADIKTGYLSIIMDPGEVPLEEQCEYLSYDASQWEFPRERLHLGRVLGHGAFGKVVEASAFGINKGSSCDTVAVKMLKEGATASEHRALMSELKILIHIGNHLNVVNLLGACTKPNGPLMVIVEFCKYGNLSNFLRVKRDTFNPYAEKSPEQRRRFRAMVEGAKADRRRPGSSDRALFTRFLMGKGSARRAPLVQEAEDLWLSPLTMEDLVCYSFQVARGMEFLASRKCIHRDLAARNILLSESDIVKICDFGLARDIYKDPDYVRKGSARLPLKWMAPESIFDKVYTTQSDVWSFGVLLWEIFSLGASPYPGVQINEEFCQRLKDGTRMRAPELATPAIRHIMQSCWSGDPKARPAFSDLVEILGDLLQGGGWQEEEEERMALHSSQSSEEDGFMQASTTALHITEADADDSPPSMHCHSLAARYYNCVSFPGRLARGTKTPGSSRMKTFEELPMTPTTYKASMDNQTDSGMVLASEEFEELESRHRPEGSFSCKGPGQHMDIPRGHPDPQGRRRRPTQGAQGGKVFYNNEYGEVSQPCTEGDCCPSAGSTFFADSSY

[9] = Toxicity in BALB/c mouse xenografted with MDA-MB-231 cells assessed as effect on body weight at 50 mg/kg, po; type: organism-based; details: in vivo
[10] = system: MDA-MB-436; assay: Antimigratory activity against human MDA-MB-436 cells assessed as reduction in cell migration incubated for 12 hrs by transwell assay; type: functional, cell-based
[11] = target: Vascular endothelial growth factor receptor 3 (Mus musculus) (UniProt P35917); assay: In vivo inhibition of VEGFR3 phosphorylation in BALB/c mouse xenografted with MDA-MB-231 cells at 25 mg/kg, po by immunohistochemistry analysis; type: functional, organism-based
[12] = target: Tyrosine-protein kinase BTK (Homo sapiens, UniProt Q06187); assay: Inhibition of human BTK assessed as residual kinase activity at 1 uM relative to control
Sequence of Tyrosine-protein kinase BTK (Q06187 whole entry): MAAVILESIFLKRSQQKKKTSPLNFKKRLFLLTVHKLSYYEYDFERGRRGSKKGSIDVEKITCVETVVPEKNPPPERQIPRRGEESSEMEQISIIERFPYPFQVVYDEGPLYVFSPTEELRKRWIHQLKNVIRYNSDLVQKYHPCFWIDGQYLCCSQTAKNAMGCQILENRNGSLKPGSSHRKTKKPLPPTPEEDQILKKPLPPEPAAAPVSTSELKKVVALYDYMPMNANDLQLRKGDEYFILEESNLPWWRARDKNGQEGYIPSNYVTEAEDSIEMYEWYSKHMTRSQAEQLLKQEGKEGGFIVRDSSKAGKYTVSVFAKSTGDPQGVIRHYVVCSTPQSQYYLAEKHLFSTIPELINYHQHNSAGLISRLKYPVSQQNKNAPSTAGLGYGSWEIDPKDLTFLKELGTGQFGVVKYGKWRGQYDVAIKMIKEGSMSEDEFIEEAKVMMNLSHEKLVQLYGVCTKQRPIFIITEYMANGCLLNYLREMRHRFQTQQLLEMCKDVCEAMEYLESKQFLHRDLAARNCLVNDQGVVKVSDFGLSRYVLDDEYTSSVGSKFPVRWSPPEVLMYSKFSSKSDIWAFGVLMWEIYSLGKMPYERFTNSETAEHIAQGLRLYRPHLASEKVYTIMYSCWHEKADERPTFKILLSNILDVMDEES

[13] = system: MDA-MB-231; assay: Antimetastatic activity against human MDA-MB-231 cells injected into vein of BALB/c mouse lung metastatic model assessed as less lung metastatic nodules at 50 mg/kg, po once a day measured on day 21; type: functional, organism-based; details: time 21.0 day
[14] = system: MDA-MB-436; assay: Induction of apoptosis in human MDA-MB-436 cells assessed as apoptotic cells at 5 uM incubated for 48 hrs by flow cytometry; type: functional
[15] = system: MDA-MB-231; assay: Induction of apoptosis in human MDA-MB-231 cells assessed as apoptotic cells at 2.5 to 5 uM incubated for 48 hrs by flow cytometry (reference value: 7.2%); type: functional; details: dose 2.5-5 µM
[16] = system: MDA-MB-231; assay: Downregulation of MMP2 protein expression in human MDA-MB-231 cells up to 10 uM incubated for 24 hrs by Western blot analysis; type: functional, cell-based; details: dose microM <=10, time 24.0 hrs
[17] = target: T1, Vascular endothelial growth factor receptor 3; assay: Inhibition of VEGFR3 in human dermal lymphatic endothelial cells assessed as inhibition of ERK1/2 phosphorylation incubated for 24 hrs by Western blot analysis; details: HDLEC
[18] = Cmax in Sprague-Dawley rat at 10 mg/kg, po by LC-MS analysis; type: ADME, organism-based; design: route oral, dose 10 mg/kg; details: in vivo
[19] = system: MDA-MB-436; assay: Induction of apoptosis in human MDA-MB-436 cells assessed as downregulation of Bcl2 expression up to 10 uM incubated for 24 hrs by Western blotting analysis; type: functional, cell-based; details: dose microM <=10, time 24.0 hrs
[20] = target: Vascular endothelial growth factor receptor 1 (Homo sapiens, UniProt P17948); assay: Inhibition of human FLT1/VEGFR1
Sequence of Vascular endothelial growth factor receptor 1 (P17948 whole entry): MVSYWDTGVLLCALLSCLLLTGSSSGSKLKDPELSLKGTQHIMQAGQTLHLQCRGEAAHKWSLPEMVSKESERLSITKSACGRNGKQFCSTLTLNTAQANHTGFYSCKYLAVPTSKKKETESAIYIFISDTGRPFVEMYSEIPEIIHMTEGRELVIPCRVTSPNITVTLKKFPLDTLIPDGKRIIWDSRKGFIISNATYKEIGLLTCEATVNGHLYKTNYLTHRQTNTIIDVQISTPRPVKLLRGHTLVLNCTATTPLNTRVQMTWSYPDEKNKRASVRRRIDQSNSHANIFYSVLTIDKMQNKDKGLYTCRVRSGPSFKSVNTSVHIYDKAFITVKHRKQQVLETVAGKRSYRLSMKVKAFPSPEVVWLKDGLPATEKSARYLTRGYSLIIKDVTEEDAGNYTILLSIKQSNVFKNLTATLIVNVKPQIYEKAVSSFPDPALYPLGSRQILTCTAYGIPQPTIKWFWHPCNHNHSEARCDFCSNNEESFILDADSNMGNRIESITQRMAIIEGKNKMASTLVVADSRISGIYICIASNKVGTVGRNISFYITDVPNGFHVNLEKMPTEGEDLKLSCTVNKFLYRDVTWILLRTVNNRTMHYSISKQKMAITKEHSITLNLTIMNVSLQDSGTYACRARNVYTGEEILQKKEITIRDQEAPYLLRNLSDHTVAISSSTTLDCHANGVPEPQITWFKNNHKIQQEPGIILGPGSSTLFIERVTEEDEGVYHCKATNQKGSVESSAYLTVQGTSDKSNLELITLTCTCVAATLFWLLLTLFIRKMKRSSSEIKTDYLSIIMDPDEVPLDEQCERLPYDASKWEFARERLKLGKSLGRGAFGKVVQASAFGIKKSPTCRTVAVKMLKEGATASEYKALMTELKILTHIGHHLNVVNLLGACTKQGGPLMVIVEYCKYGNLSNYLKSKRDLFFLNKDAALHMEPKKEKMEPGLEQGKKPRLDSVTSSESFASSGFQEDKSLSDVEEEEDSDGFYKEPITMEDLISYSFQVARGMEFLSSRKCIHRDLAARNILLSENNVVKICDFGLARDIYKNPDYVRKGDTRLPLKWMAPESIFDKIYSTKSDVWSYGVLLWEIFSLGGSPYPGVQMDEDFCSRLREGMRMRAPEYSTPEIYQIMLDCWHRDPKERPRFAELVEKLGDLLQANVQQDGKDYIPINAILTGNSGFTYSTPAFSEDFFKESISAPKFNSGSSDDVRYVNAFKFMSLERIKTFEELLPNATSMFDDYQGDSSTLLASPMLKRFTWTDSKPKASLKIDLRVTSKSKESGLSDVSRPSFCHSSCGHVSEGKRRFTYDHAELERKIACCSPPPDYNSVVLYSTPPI

[21] = system: Mus musculus; assay: Downregulation of MMP2 protein expression human MDA-MB-231 cells injected into vein of BALB/c mouse lung metastatic model at 50 mg/kg, po once a day measured on day 21 by […]; type: functional, organism-based
[22] = system: HDLEC; assay: Upregulation of E-cadherin protein expression in human dermal lymphatic endothelial cells incubated for 24 hrs by Western blot analysis; type: functional
[23] = system: MDA-MB-436; assay: Induction of apoptosis in human MDA-MB-436 cells assessed as accumulation at G1 phase incubated for 48 hrs by flow cytometry; type: functional, cell-based
[24] = system: Mus musculus; assay: Decrease in p-VEGFR3 level in BALB/c mouse xenografted with MDA-MB-231 cells in tumor tissue at 25 mg/kg, po by immunohistochemistry analysis; type: functional, organism-based
[25] = system: Mus musculus; assay: Decrease in MMP-2 level in BALB/c mouse xenografted with MDA-MB-231 cells in tumor tissue at 25 mg/kg, po by immunohistochemistry analysis; type: functional, organism-based
[26] = Toxicity in BALB/c mouse xenografted with MDA-MB-231 cells assessed as change in liver at 300 mg/kg, po by hematoxylin and eosin staining based analysis; type: organism-based; details: in vivo
[27] = Antiproliferative activity against VEGF-D-induced human dermal lymphatic endothelial cells assessed as cell viability incubated for 48 hrs by CCK-8 assay; type: functional, tissue-based; details: HDLEC

With CN1CCN(c2ccc(-c3cc4c(N5CCN(C(=O)Nc6ccc(Cl)c(C(F)(F)F)c6)CC5)ncnc4s3)cc2)CC1 the IC50 [1] was 3.5 µM, the inhibition [2] was “Dose-Dependent Effect” and the AUC(0-t) [3] was 9220 ng·h/mL. For the same compound, the Activity [4] was “Active”, the Activity [5] was “Active” and the Cmax [6] was 420 ng/mL. The inhibition [7] was “Active”, the Activity [8] was “Active” and the Activity [9] was “Non-Toxic”. The Activity [10] was “Active”, the Activity [11] was “Active” and the Activity [12] was 19%. The Activity [13] was “Active”, the Activity [14] was 36.7% and the Activity [15] was 19.7%. The Activity [16] was “Active”, the inhibition [17] was “Dose-Dependent Effect” and the Cmax [18] was 420 ng/mL. The Activity [19] was “Active”, the IC50 [20] was > 10 µM and the Activity [21] was “Active”. The Activity [22] was “Active”, the Activity [23] was “Dose-Dependent Effect” and the Activity [24] was “Active”. For the same compound, the Activity [25] was “Active”, the Activity [26] was “Non-Toxic” and the IC50 [27] was 0.68 µM.
